{"source": "paper PMC10928576", "about": "“Cpne7 deficiency induces cellular senescence and premature aging of dental pulp” (Aging Cell, 2023)", "key": {"[1]": {"test_system": "hDPCs", "test": "γ-H2AX immunofluorescence in hDPCs", "type": "cell-based, human", "details": "1 mM H2O2, vs control", "description": "Human DPCs and tissue sections were treated with phosphate‐buffered saline (PBS) and 0.5% Triton X‐100 for permeabilization. After washing and blocking, cells and tissue samples were incubated overnight at 4°C with γ‐H2AX (1:100, Cell Signaling Technology, #9718) and CPNE7 (1:100) in blocking buffer (PBS and 2% bovine serum albumin). Subsequently, FITC‐conjugated anti‐rabbit secondary antibody (1:500) or Cy3‐conjugated anti‐rabbit (1:500) was applied. Cells were visualized using confocal microscopy (LSM980, Zeiss, Germany). The chromosomal DNA in the nucleus was stained with 4′,6‐diamidino‐2‐phenylindole (DAPI). The microtubules were detected using α‐TUBULIN antibodies (1:1000; Santa Cruz), and F‐ACTIN was stained with Alexa Fluor 488 or rhodamine‐conjugated phalloidin (Invitrogen). Flag‐tagged rCPNE7 was detected using Flag‐antibodies (1:500; Sigma–Aldrich), and TAU was detected by TAU antibodies (1:100; CUSABIO). Immunofluorescence staining of TAU, F‐ACTIN, and α‐TUBULIN was analyzed using the IMARIS cell imaging software (Bitplane) (n = 3, each group)."}, "[2]": {"test_system": "hDPCs", "test": "γ-H2AX / P21 western blot in H2O2-treated hDPCs", "type": "cell-based, human", "description": "Cellular proteins (30 μg) were separated by 10% or 15% sodium dodecyl sulfate‐polyacrylamide gel electrophoresis (SDS‐PAGE) and transferred to polyvinylidene fluoride (PVDF) membranes. The PVDF membranes were blocked for 1 h with 5% nonfat dry milk in Tris‐buffered saline containing 0.1% Tween 20 (TBS‐T) and incubated overnight at 4°C with the primary antibody diluted in TBS‐T (1:5000). After washing, membranes were incubated for 1 h with the appropriate secondary antibodies. Labeled protein bands were detected under an enhanced chemiluminescence system (Amersham Biosciences/GE Healthcare). All reactions were performed in triplicate. Semi‐quantitative analyses were performed using Image J software (National Institute of Health, MD, USA) (n = 3, each group)."}, "[3]": {"test_system": "hDPCs", "test": "Comet assay", "type": "cell-based, human", "details": "1 mM H2O2", "description": "Human DPCs were combined with Comet Agarose (Abcam, ab238544) at 1/10 ratio (v/v), mixed by pipetting, and immediately transferred onto the top of the Comer Agarose Base Layer Slide (Abcam, ab238544). Set horizontally, the slides were incubated at 4°C in the dark for 15 min, and placed in a small basin/container containing pre‐chilled Lysis Buffer (Abcam, ab238544). They were immersed in the buffer for 1 h at 4°C in the dark. After 1 h, aspiration of the Lysis Buffer from the container was done and replaced with a pre‐chilled Alkaline Solution (Abcam, ab238544), followed by electrophoresis chamber filled with the Alkaline Electrophoresis Solution. Voltage was applied to the chamber for 30 min at 1 volt/cm. The slides were then rinsed with pre‐chilled DI H2O and replaced with cold 70% Ethanol for 5 min. The slide was removed from the 70% Ethanol and allowed to air dry. Once the slide was completely dry, staining with Vista Green DNA Dye (Abcam, ab238544) was done at room temperature for 15 min. Cells were visualized using confocal microscopy (LSM980, Zeiss, Germany) (n = 3, each group)."}, "[4]": {"test_system": "hDPCs", "details": "30 min or 1 h after H2O2 100 μM, 500 μM or 1 mM"}, "[5]": {"test_system": "hDPCs", "test": "Senescence β-galactosidase (SA-β gal) staining of H2O2-treated hDPCs", "type": "cell-based, human", "details": "hDPCs, 1 mM H2O2, 30 min", "description": "The hDPCs were obtained from the Seoul National University Dental Hospital, and the experimental protocol was accepted by the Institutional Review Board of the Seoul National University (S‐D20140007). Informed consent was obtained from patients. Human DPCs were isolated and used in an in vitro experiment as described previously (Jung et al., [2011]). Human DPCs were cultured in minimum essential medium α (Gibco BRL, 12571063) supplemented with 10% heat‐inactivated fetal bovine serum (FBS; Gibco BRL, 16000044) and antibiotic‐antimycotic (Gibco BRL, 15240062) at 37°C in an atmosphere with 5% CO2. The cells were then treated with recombinant CPNE7 protein (rCPNE7, 100 ng/mL; Origene, TP306428) or CPNE7‐derived peptide (CPNE7‐DP, 10 μg/mL). After oxidative stress‐induced DNA damage using Hydrogen Peroxide Solution (H2O2; Merck, H1009) rCPNE7 was treated after replacement with a new culture medium (α‐MEM).\nHuman DPCs were fixated with Fixative Solution (Cell Signaling Technology, #9860) at room temperature for 15 min. Rinsed twice with PBS, the cells were then stained with β‐Galactosidase Staining Solution (Cell Signaling Technology, #9860) at 37°C overnight in a dry incubator (no CO2). Cells were observed using light microscopy (Primovert, Zeiss, Germany) (n = 3, each group)."}, "[6]": {"test_system": "hDPCs"}}, "data": [{"molecule": "OO", "note": "[H2O2, hydrogen peroxide, reference compound]", "values": [{"measurement": "expression of γ-H2AX (immunofluorescence)", "setting": "[1]", "result": "specifically detected in cellular nuclei"}, {"measurement": "expressions of γ-H2AX and P21 (DNA damage and cell cycle arrest)", "setting": "[2]; 500 μM H2O2", "result": "upregulated"}, {"measurement": "protein expression level of γ-H2AX (western blot)", "setting": "[2]; 1 mM and 2 mM H2O2", "result": "clearly detected"}, {"measurement": "DNA fragmentation (comet assay)", "setting": "[3]", "result": "fragmented DNA visualized as a cell tail"}, {"measurement": "endogenous mRNA expression level of Cpne7", "setting": "[4]", "result": "started to increase"}, {"measurement": "SA-β gal positive signals (induction of senescence)", "setting": "[5]", "result": "began to deposit"}, {"measurement": "cytotoxicity of oxidative stress", "setting": "[6]; 1 mM and 2 mM H2O2, after 48 h", "result": "severe cytotoxicity"}, {"measurement": "cell death / survival rate (WST-8)", "setting": "[6]; H2O2 50 μM to 2 mM for 24 h", "result": "cell death occurred in a concentration‐dependent manner except for 50 μM"}]}]}
